The values that follow come from ChEMBL document CHEMBL1136148, “Tetrabiphenylporphyrin-based receptors for protein surfaces show sub-nanomolar affinity and enhance unfolding” (Bioorg Med Chem Lett, 2003).

What is called pKd is the Kd on a negative log10 scale, so that one unit is a factor of ten. A high value points to a small Kd.

A short description of this test: Binding ability of the receptor to the surface of Cytochrome c and activity expressed as Dissociation constant(Kd). The arrangement: species or system Equus caballus.

Molecules are shown by their SMILES. pKd: −log10 of the molar value.

For `O=C(O)c1cc(C(=O)O)cc(-c2ccc(-c3c4nc(c(-c5ccc(-c6cc(C(=O)O)cc(C(=O)O)c6)cc5)c5ccc([nH]5)c(-c5ccc(-c6cc(C(=O)O)cc(C(=O)O)c6)cc5)c5ccc([nH]5)c(-c5ccc(-c6cc(C(=O)O)cc(C(=O)O)c6)cc5)c5nc3C=C5)C=C4)cc2)c1`, the pKd is 5.82.
For the compound `O=C(O)C[C@H](NC(=O)c1cc(C(=O)N[C@@H](CC(=O)O)C(=O)O)cc(-c2ccc(-c3c4nc(c(-c5ccc(-c6cc(C(=O)N[C@@H](CC(=O)O)C(=O)O)cc(C(=O)N[C@@H](CC(=O)O)C(=O)O)c6)cc5)c5ccc([nH]5)c(-c5ccc(-c6cc(C(=O)N[C@@H](CC(=O)O)C(=O)O)cc(C(=O)N[C@H](CC(=O)O)C(=O)O)c6)cc5)c5nc(c(-c6ccc(-c7cc(C(=O)N[C@@H](CC(=O)O)C(=O)O)cc(C(=O)N[C@@H](CC(=O)O)C(=O)O)c7)cc6)c6ccc3[nH]6)C=C5)C=C4)cc2)c1)C(=O)O`, the pKd is 9.17.
With `COC(=O)[C@H](CC(=O)O)NC(=O)c1cc(C(=O)N[C@@H](CC(=O)O)C(=O)OC)cc(-c2ccc(-c3c4nc(c(-c5ccc(-c6cc(C(=O)N[C@@H](CC(=O)O)C(=O)OC)cc(C(=O)N[C@@H](CC(=O)O)C(=O)OC)c6)cc5)c5ccc([nH]5)c(-c5ccc(-c6cc(C(=O)N[C@@H](CC(=O)O)C(=O)OC)cc(C(=O)N[C@H](CC(=O)O)C(=O)OC)c6)cc5)c5nc(c(-c6ccc(-c7cc(C(=O)N[C@@H](CC(=O)O)C(=O)OC)cc(C(=O)N[C@@H](CC(=O)O)C(=O)OC)c7)cc6)c6ccc3[nH]6)C=C5)C=C4)cc2)c1`, the pKd is 5.77. This pKd is 3.40 log units lower than that of the compound before.
`O=C(O)c1ccc(-c2ccc(-c3c4nc(c(-c5ccc(-c6ccc(C(=O)O)cc6)cc5)c5ccc([nH]5)c(-c5ccc(-c6ccc(C(=O)O)cc6)cc5)c5ccc([nH]5)c(-c5ccc(-c6ccc(C(=O)O)cc6)cc5)c5nc3C=C5)C=C4)cc2)cc1`: the pKd is 4.77.
